# Entries after “also recorded” stand apart in the source; their conditions may differ. Read-outs that look alike come from different tables or passages of the source.
# Experiments:
# 3T3-L1 cells [1] = assay: Lipolysis assay (glycerol release) with differentiated 3T3-L1 cells; type: cell-based, murine; conditions: 10 μM, 4 hours, 3% BSA/PBS; positive control
# Method: 3T3-L1 cells were stimulated by a hormone cocktail to adipogenesis and differentiated for another 8 days to mature adipocytes. […] The lipolytic activity was measured using a lipolysis assay, as described below: The cleavage of triglycerides into glycerol and the three fatty acids is known as lipolysis. This process is catalyzed primarily by the hormone-sensitive lipase and the adipose triglyceride lipase. Using a lipolysis assay the lipolytic activity of cells can be detected. This assay is based on the measurement of glycerol emerged during lipolysis, which is secreted by the cells into the medium. The glycerol is metabolized by enzymatic reactions to glycerol-1-phosphate and then to dihydroxy acetone phosphate. Thereby hydrogen peroxide is produced, which is quantified photometrically with a peroxidase stain reaction. In order to be able to make statements about the lipolytic action of substances, they are compared with the basal lipolysis activity of the cells and with the lipolysis stimulated by the beta-adrenergic receptor. Such a stimulation can be caused by isoproterenol. FIG. 7: Graphical picture of the analysis of the lipolysis assay (μg glycerol/μg DNA) with treated differentiated 3T3-L1 cells. 3T3-L1 were stimulated by a hormonal induction cocktail to adipogenesis and then differentiated for 8 days. […]
# [2] = test system: Adipose-Derived Stem Cells (ADSC); assay: Propidium iodide (PI) staining of treated differentiated ADSCs (CLSM); type: cell-based, human
# Method: Further analysis of the cell-damaging effect of sodium deoxycholate on ADSCs was performed by PI staining of the treated cells and subsequent analysis with CLSM. The differentiated, mature adipocytes were treated with: • 0.05 mg/ml, 0.1 mg/ml and 0.5 mg/ml sodium deoxycholate for 4 hours.
# Then the cells were incubated in a medium containing 5 µg/ml propidium iodide for 5 minutes. This was followed by microscopic analysis with CLSM at a 63-fold magnification (FIG. 3c).
# (§1) After the incubation period (4 hours) the adipocytes were stained with 5 μm/ml PI and analyzed with CLSM. In the upper PI-row (a-e) fluorescence images of PI-stained cells are shown. In the lower PK-row (a-e) the corresponding phase contrast images are presented with the overlapping fluorescence images over one another.
# A further analysis of a cell-damaging effect of phosphatidyl choline on ADSCs was performed by PI staining of the treated cells and subsequent analysis with CLSM. The differentiated, mature adipocytes were treated with: • 5 mg/ml, 10 mg/ml and 15 mg/ml phosphatidyl choline for 4 hours.
# Then the cells were incubated in a medium containing 5 μg/ml propidium iodide for 5 minutes. This was followed by microscopic analysis with CLSM at a 63-fold magnification (FIG. 4c).
# as §1, with “μg/ml” for “μm/ml”, “another (Size bar=20 μm).” for “another.”
# 3T3-L1 cells [3] = assay: Membrane damaging / cytotoxic effect on differentiated 3T3-L1 cells (light microscopy, CLSM phase contrast); type: cell-based, murine; conditions: for In vitro Cell damaging causing concentration: single agent
# Method: In order to test in vitro the effects of phosphatidyl choline on the membrane integrity and stability, differentiated 3T3-L1 cells were incubated with different concentrations of phosphatidyl choline for 4 and 24 hours and then analyzed by light microscopy.
# As a model system, the murine preadipocyte cell line 3T3-L1 was used for the studies. 3T3-L1 cells were stimulated to adipogenesis by a conventional hormone cocktail (corticosterone, isobutylmethylxanthine, indomethacin, insulin) and differentiated for another 8 days to mature adipocytes.
# The mature adipocytes of the 3T3-L1 cells were treated with various concentrations of phosphatidyl choline.
# First, a phosphatidyl choline stock solution was prepared: • 500 mg/ml phosphatidyl choline dissolved in 70% ethanol
# The used concentrations of phosphatidyl choline were: • 1 mg/ml, 5 mg/ml, 10 mg/ml, 15 mg/ml, 20 mg/ml
# FIG. 1a: Phase contrast images of treated differentiated 3T3-L1 cells in 2D cell culture. The treatment was as follows: • (a) control=untreated cells in differentiation medium • (b) 1 mg/ml of phosphatidyl choline after 24 hours • (b) 5 mg/ml of phosphatidyl choline after 24 hours • (d) 10 mg/ml of phosphatidyl choline after 24 hours • (e) 15 mg/ml of phosphatidyl choline after 24 hours • (f) 20 mg/ml of phosphatidyl choline after 24 hours • (Size bar=100 μm).
# FIG. 1b: Phase contrast images using a CLSM at a 63-fold magnification of treated differentiated 3T3-L1 cells in 2D cell culture. The treatment was as follows: • (a) control=untreated cells in differentiation medium after 4 hours • (b) 1 mg/ml of phosphatidyl choline after 4 hours • (c) 5 mg/ml of phosphatidyl choline after 4 hours • (d) 10 mg/ml of phosphatidyl choline after 4 hours • (Size bar=20 μm).
# As a model system the murine preadipocyte cell line 3T3-L1 was used for the studies. 3T3-L1 cells were stimulated by a hormone cocktail (corticosterone, isobutylmethylxanthine, indomethacin, insulin) to adipogenesis and differentiated for another 8 days to mature adipocytes.
# The mature adipocytes of 3T3-L1 cells were incubated with various concentrations of phosphatidyl choline between 0.1 mg/ml and 50 mg/ml. The phosphatidyl choline was combined with 2-20 mg/ml glycyrrhizinate and 18-180 mg/ml maltose.
# The incubation of mature 3T3-L1 cells was performed for a duration of 4 hours with the substances combination.
# Then the treated cells were examined at a 63-fold magnification by light microscopy for a membrane destabilizing and cytotoxic effect.
# FIG. 9: Phase contrast images of treated differentiated 3T3-L1 cells. 3T3-L1 were stimulated by a hormonal induction cocktail to adipogenesis and then differentiated for 8 days. The mature adipocytes were treated for 24 hours with phosphatidyl choline and sodium deoxycholate from Lipostabil® with the following concentrations: • (a) untreated cells in differentiation medium, • (b) 0.01 mg/ml phosphatidyl choline+0.005 mg/ml Na-deoxycholate, • (c) 0.1 mg/ml phosphatidyl choline+0.05 mg/ml Na-deoxycholate, • (d) 0.25 mg/ml phosphatidyl choline+0.125 mg/ml Na-deoxycholate, • (e) 0.5 mg/ml phosphatidyl choline+0.25 mg/ml Na-deoxycholate, • (f) 1 mg/ml phosphatidyl choline+0.5 mg/ml Na-deoxycholate.
# The analysis was done using the light microscope. Cells with damaged membrane or cell fragments are marked examplary with black arrows, while free lipid droplets are indicated by white arrows.
# [4] = test system: Adipose-Derived Stem Cells (ADSC); assay: Membrane damaging effect on differentiated ADSCs (light microscopy, CLSM); type: cell-based, human; conditions: 4 hours
# Description: The human subcutaneous adipose tissue can serve as a potential source of adult stem cells. These so-called “Adipose-Derived Stem Cells” (ADSC) are multipotent and may be differentiated by appropriate stimuli into various cell types, e.g. osteoblasts, chondrocytes, adipocytes. The isolation of ADSCs from human subcutaneous adipose tissue which is removed during plastic reductive surgery, is shown schematically in FIG. 2.
# First the fat was washed with buffer to remove hematopoietic cells, and then crushed. The resulting pieces of fatty tissue were digested with collagenase. By centrifugation of the digested tissue the stromal-vascular fraction was separated and the floated mature adipocytes were discarded. The stromal-vascular fraction in the pellet is composed of a heterogeneous cell population of blood cells, fibroblasts, pericytes, endothelial cells and preadipocytes.
# This cell population was transferred into a culture bottle with medium, wherein a portion of the cells adhered. By adding a suitable cocktail consisting of insulin, dexamethasone, indomethacin and isobutylmethylxanthine or consisting of insulin, cortisol, troglitazone, triiodothyronine and isobutylmethylxanthine the cells were stimulated for adipogenesis and an improved adipogenic differentiation was achieved.
# The ADSCs of Example 4 were stimulated by a hormone cocktail (insulin, cortisol, troglitazone, triiodothyronine and isobutylmethylxanthine) to adipogenesis and then differentiated for another 21 days into mature adipocytes.
# This was followed by a treatment with sodium deoxycholate. For this the following concentrations were used: • 0.01 mg/ml, 0.05 mg/ml, 0.075 mg/ml, 0.1 mg/ml and 0.5 mg/ml.
# The incubation period was 4 hours.
# This concentration range has been already proven to be effective in 3T3-L1. After the incubation period of 4 hours, the differentiated treated cells were subsequently viewed by light microscopy (FIG. 3a).
# Additionally, ADSCs treated with sodium deoxycholate were examined with CLSM. The differentiated, mature adipocytes were treated with: • 0.01 mg/ml, 0.05 mg/ml and 0.1 mg/ml sodium deoxycholate for 4 hours.
# This was followed by microscopic analysis with CLSM at a 63-fold magnification (FIG. 3b). […]
compound,measurement,setting,value
CC(C)NCC(O)c1ccc(O)c(O)c1 (centres unmarked) [isoproterenol],lipolytic activity compared to the basal level,3T3-L1 cells [1],eight times the basal level
Triton,PI staining (membrane integrity),[2],red cells stained by PI
sodium deoxycholate [Na-deoxycholate],membrane damaging effect,3T3-L1 cells [3]; 0.05 mg/ml,membrane-damaging effects occurred
same,membrane damaging effect,3T3-L1 cells [3]; 0.5 mg/ml,highly toxic
same,effect on the cell membrane,3T3-L1 cells [3]; 20 mg/ml,clear destruction of the cell membrane
same,In vitro Cell damaging causing concentration,3T3-L1 cells [3],≥ 0.05 mg/mL
same,In vitro Cell damaging causing concentration,3T3-L1 cells [3]; listed as Na Deoxycholate,from 0.05 mg/ml
same,membrane damaging / cytotoxic effect,[4]; 0.01 mg/ml,no effect on the cells; also recorded: no cytotoxic effect
same,membrane damaging / cytotoxic effect,[4]; 0.05 mg/ml,slight damages of the cell membrane
same,membrane damaging / cytotoxic effect,"[4]; 0.05 mg/ml, listed as Na-DC",injury
same,membrane damaging / cytotoxic effect,"[4]; 0.1 mg/ml, CLSM",strong membrane damage
same,membrane damaging / cytotoxic effect,[4]; 0.5 mg/ml,significantly toxic effect on the cells
same,membrane damaging / cytotoxic effect,"[4]; 0.5 mg/ml, listed as Na-DC",dead
same,PI staining (membrane integrity),"[2]; 0.05 mg/ml, 4 hours",no red-stained cells
same,PI staining (membrane integrity),"[2]; 0.1 mg/ml, 4 hours",individual red-stained cells
same,PI staining (membrane integrity),"[2]; 0.5 mg/ml, 4 hours",many and clearly red-stained cells
same,PI staining (membrane integrity),"[2]; 5, 10 and 15 mg/ml, 4 hours",no red-stained cells
